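Five concentrations, 48 hours, 96-well plates. TGI marks complete inhibition of growth.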 Where only a bound is given, the exact number is not on record here.

Test systems include OVCAR-3 ovarian; HS 578T breast; UACC-257 melanoma; U251 CNS; MDA-N; SW-620 colon; MALME-3M melanoma; SK-MEL-28 melanoma; HCC-2998 colon; SR leukemia; A498 renal; 786-0 renal; HOP-62 NSCLC; COLO 205 colon; TK-10 renal; SN12C renal; RXF 393 renal.
Experiment in all cases: inhibition of tumour cell growth, NCI panel, 48 h

In the case of `COC(=O)c1ccc(CCc2cc(O)c(Br)cc2O)cc1`, the TGI in the assay on OVCAR-3 ovarian was 19.8 µM; in the assay with HS 578T breast it was over 100 µM; with UACC-257 melanoma, 30.9 µM; in the assay with U251 CNS it was 25.8 µM; with MDA-N, 30 µM; with SW-620 colon, 30.5 µM. The TGI in the assay with MALME-3M melanoma was 32.4 µM; with SK-MEL-28 melanoma, 34.4 µM; with HCC-2998 colon it was 32.9 µM; with SR leukemia it was 14.4 µM; with A498 renal, 40.7 µM; in the assay on 786-0 renal, 27.5 µM. Also, the TGI in the assay on HOP-62 NSCLC is 32.2 µM; with COLO 205 colon, 27.3 µM; in the assay on TK-10 renal it was 27.6 µM; in the assay with SN12C renal, 28.3 µM; with RXF 393 renal, 32.9 µM.
As to `COC1(OC)C2(Cl)C(Cl)=C(Cl)C1(Cl)C1COCC12` (stereo unspecified), the TGI was over 100 µM in the assay on OVCAR-3 ovarian; over 100 µM in the assay with HS 578T breast; over 100 µM in the assay with UACC-257 melanoma; over 75 µM with U251 CNS; over 100 µM in the assay on MDA-N; over 100 µM in the assay with SW-620 colon. For the same compound, the TGI in the assay on MALME-3M melanoma is over 100 µM; with SK-MEL-28 melanoma it was over 55.4 µM; in the assay with HCC-2998 colon, over 100 µM; in the assay with SR leukemia, over 100 µM; in the assay with A498 renal, over 100 µM; with 786-0 renal, over 100 µM. The TGI in the assay with HOP-62 NSCLC was over 100 µM; in the assay on COLO 205 colon it was over 100 µM; with TK-10 renal it was over 72.3 µM; in the assay on SN12C renal, over 100 µM; with RXF 393 renal, over 100 µM.
`O=CC1OC(=O)c2cc(O)c(O)c(O)c2-c2c(cc(O)c(O)c2O)C(=O)OC1C(O)C(O)CO` (stereo unspecified): the TGI in the assay with OVCAR-3 ovarian was over 100 µM; in the assay on HS 578T breast it was over 100 µM; with UACC-257 melanoma, over 100 µM; in the assay on U251 CNS, 32.3 µM; in the assay on MDA-N, 36.2 µM; with SW-620 colon, 32.9 µM. Moreover, the TGI in the assay on MALME-3M melanoma is over 100 µM; in the assay on SK-MEL-28 melanoma, over 100 µM; with HCC-2998 colon it was over 100 µM; in the assay with SR leukemia it was 51.3 µM; in the assay on A498 renal, over 100 µM; with 786-0 renal, over 100 µM. In addition, the TGI in the assay with HOP-62 NSCLC, with COLO 205 colon, in the assay with TK-10 renal, with SN12C renal and in the assay on RXF 393 renal was over 100 µM throughout.
With `COc1cc(C2SCC(=O)N2c2ccc(Cl)cc2)cc(I)c1O` (stereo unspecified), the TGI in the assay with OVCAR-3 ovarian, in the assay with HS 578T breast, in the assay with UACC-257 melanoma, in the assay on U251 CNS, in the assay with MDA-N and with SW-620 colon was over 100 µM each time. In addition, the TGI was over 100 µM with MALME-3M melanoma; over 100 µM in the assay with SK-MEL-28 melanoma; over 100 µM with HCC-2998 colon; over 100 µM with SR leukemia; over 23.2 µM with A498 renal; over 100 µM in the assay with 786-0 renal. The TGI in the assay on HOP-62 NSCLC is over 100 µM; in the assay on COLO 205 colon, over 23.7 µM; in the assay on TK-10 renal, over 100 µM; in the assay with SN12C renal it was over 100 µM; in the assay with RXF 393 renal it was over 100 µM.
For `COc1ccc(C(C#N)NCCCCCCNC(C#N)c2ccc(OC)cc2)cc1` (stereo unspecified), the TGI with OVCAR-3 ovarian, with HS 578T breast, with UACC-257 melanoma, with U251 CNS, in the assay on MDA-N and with SW-620 colon was over 100 µM each time. Besides, the TGI in the assay on MALME-3M melanoma, with SK-MEL-28 melanoma, with HCC-2998 colon, with SR leukemia, with A498 renal and in the assay on 786-0 renal was over 100 µM in each case. In addition, the TGI in the assay with HOP-62 NSCLC, in the assay on COLO 205 colon, in the assay with TK-10 renal, in the assay with SN12C renal and with RXF 393 renal was over 100 µM throughout.
Turning to `O=C(N/N=C\c1ccc([N+](=O)[O-])cc1)Nc1cccc2ccccc12`, the TGI is over 100 µM with OVCAR-3 ovarian; 32 µM with HS 578T breast; over 100 µM in the assay with UACC-257 melanoma; 23.6 µM in the assay with U251 CNS; over 100 µM with MDA-N; over 100 µM in the assay with SW-620 colon. Also, the TGI is over 82.5 µM in the assay with MALME-3M melanoma; over 100 µM with SK-MEL-28 melanoma; over 100 µM with HCC-2998 colon; over 100 µM in the assay with SR leukemia; 40.9 µM in the assay on A498 renal; 29.1 µM in the assay with 786-0 renal. Moreover, the TGI was 22.5 µM with HOP-62 NSCLC; over 100 µM in the assay with COLO 205 colon; 63.6 µM in the assay with TK-10 renal; over 100 µM with SN12C renal; 34.5 µM in the assay on RXF 393 renal.
For `O=c1[nH]c2ccc(CC(=S)N3CCN(c4ccccc4)CC3)cc2o1`, the TGI was over 100 µM with OVCAR-3 ovarian; over 100 µM in the assay on HS 578T breast; over 100 µM with UACC-257 melanoma; over 100 µM with U251 CNS; over 76.7 µM with MDA-N; over 100 µM with SW-620 colon. The TGI with MALME-3M melanoma, in the assay with SK-MEL-28 melanoma, in the assay on HCC-2998 colon, with SR leukemia, in the assay on A498 renal and in the assay on 786-0 renal was over 100 µM throughout. Also, the TGI in the assay with HOP-62 NSCLC, with COLO 205 colon, in the assay on TK-10 renal, in the assay on SN12C renal and in the assay with RXF 393 renal was over 100 µM each time.
Take `CC(=O)N1N=C(N)CC1=O`: the TGI in the assay with OVCAR-3 ovarian, in the assay on HS 578T breast, with UACC-257 melanoma, with U251 CNS, in the assay on MDA-N and with SW-620 colon was over 100 µM in each case. Moreover, the TGI with MALME-3M melanoma, in the assay with SK-MEL-28 melanoma, in the assay with HCC-2998 colon, with SR leukemia, in the assay on A498 renal and in the assay with 786-0 renal was over 100 µM in each case. The TGI with HOP-62 NSCLC, in the assay on COLO 205 colon, with TK-10 renal, with SN12C renal and in the assay on RXF 393 renal was over 100 µM throughout.

The values above are taken from PubChem BioAssay (NCI).
